Reference: patent publication US7612064B2, “Sulfopyrroles” (Takeda Pharmaceutical Company Limited, priority 2003, dated 2009)

Key:
[1] = Hoechst 33342 nuclear staining; assay type: cell-based; details: for Hoechst 33342 nuclear staining score, H460: H460 cells; for Hoechst 33342 nuclear staining score, HeLa: HeLa cells; for Hoechst 33342 nuclear staining score, Jily: Jily cells; for Hoechst 33342 nuclear staining score, Jurkat: Jurkat cells; for Hoechst 33342 nuclear staining score, MRC5: MRC5 cells; as to Hoechst 33342 nuclear staining score, PBLs: key: 0: no activity; 1: weak activity comprising less than 50% of the cells; 2: strong activity comprising more than 50% of the cells;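 as to all read-outs here: apoptotic nuclei scored 0 none 1 weak under 50% of cells 2 strong over 50% of cells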
Summary of the method: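 Cells were plated in 96 well tissue culture plates in 80 μl complete medium, with 3-5*10^3 cells per well for adherent lines and 8-10*10^3 for suspension lines. Adherent cells spread for 24 h before treatment, while suspension cells were treated right after seeding. Compounds were added in 20 μl complete medium containing max 5% DMSO.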

HeLa = experiment: MTS proliferation assay; assay type: cell-based, human; details: 72 h
Summary of the method: (§1)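 Proliferation is assessed by MTS conversion, measured as 492 nm absorption. Cells are treated for three days (72 h) with four compound concentrations between 0.3 and 10 μM.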

Jurkat = experiment: MTS proliferation assay; assay type: cell-based, human; details: 72 h
Summary of the method: as §1

MRC5 = experiment: MTS proliferation assay; assay type: cell-based; details: MRC5, 72 h
Summary of the method: as §1

Jily = experiment: MTS proliferation assay; assay type: cell-based; details: 72 h
Summary of the method: as §1

| SMILES | Hoechst 33342 nuclear staining score, H460 ([1]; conc 0.1) | Hoechst 33342 nuclear staining score, H460 ([1]; conc 0.3) | Hoechst 33342 nuclear staining score, H460 ([1]; conc 1) | Hoechst 33342 nuclear staining score, H460 ([1]; conc 3) | Hoechst 33342 nuclear staining score, HeLa ([1]; conc 0.1) | Hoechst 33342 nuclear staining score, HeLa ([1]; conc 0.3) | Hoechst 33342 nuclear staining score, HeLa ([1]; conc 1) | Hoechst 33342 nuclear staining score, HeLa ([1]; conc 3) | Hoechst 33342 nuclear staining score, Jily ([1]; conc 0.1) | Hoechst 33342 nuclear staining score, Jily ([1]; conc 0.3) | Hoechst 33342 nuclear staining score, Jily ([1]; conc 1) | Hoechst 33342 nuclear staining score, Jily ([1]; conc 3) | Hoechst 33342 nuclear staining score, Jurkat ([1]; conc 0.1) | Hoechst 33342 nuclear staining score, Jurkat ([1]; conc 0.3) | Hoechst 33342 nuclear staining score, Jurkat ([1]; conc 1) | Hoechst 33342 nuclear staining score, Jurkat ([1]; conc 3) | Hoechst 33342 nuclear staining score, MRC5 ([1]; conc 0.1) | Hoechst 33342 nuclear staining score, MRC5 ([1]; conc 0.3) | Hoechst 33342 nuclear staining score, MRC5 ([1]; conc 1) | Hoechst 33342 nuclear staining score, MRC5 ([1]; conc 3) | further results |
| --- | --- | --- | --- | --- | --- | --- | --- | --- | --- | --- | --- | --- | --- | --- | --- | --- | --- | --- | --- | --- | --- |
| COc1ccc(S(=O)(=O)n2cc(-c3cncc(C(N)=O)c3)cc2-c2cc(OC)c(OC)c(OC)c2)cc1 [Example 104, 4-(3-Aminocarbonylpyrid-5-yl)-1-p-methoxyphenylsulfonyl-2-(3,4,5-trimethoxyphenyl)-pyrrole] | 0 | 2 (strong activity comprising more than 50% of the cells) | 2 (strong activity comprising more than 50% of the cells) | 2 (strong activity comprising more than 50% of the cells) | 0 | 2 (strong activity comprising more than 50% of the cells) | 2 (strong activity comprising more than 50% of the cells) | 2 (strong activity comprising more than 50% of the cells) | 0 | 2 (strong activity comprising more than 50% of the cells) | 2 (strong activity comprising more than 50% of the cells) | 2 (strong activity comprising more than 50% of the cells) | 0 | 2 (strong activity comprising more than 50% of the cells) | 2 (strong activity comprising more than 50% of the cells) | 2 (strong activity comprising more than 50% of the cells) | 0 | 1 (weak activity comprising less than 50% of the cells) | 2 (strong activity comprising more than 50% of the cells) | 2 (strong activity comprising more than 50% of the cells) | Hoechst 33342 nuclear staining score, PBLs ([1]; conc 0.1): 0; Hoechst 33342 nuclear staining score, PBLs ([1]; conc 0.3): 0; Hoechst 33342 nuclear staining score, PBLs ([1]; conc 1): 0; Hoechst 33342 nuclear staining score, PBLs ([1]; conc 3): 0; IC50 (HeLa; Homo sapiens): < 1000 nM; IC50 (Jurkat; Homo sapiens): < 200 nM; IC50 (MRC5; Homo sapiens): < 200 nM; IC50 (Jily): < 200 nM |
| COc1cc(-c2cc(-c3cccnc3)cn2S(=O)(=O)c2c(Cl)cccc2Cl)cc(OC)c1OC [Example 85] | 0 | 0 | 0 | 0 | 0 | 0 | 0 | 0 | 0 | 0 | 0 | 0 | 0 | 0 | 0 | 0 | 0 | 0 | 0 | 0 | Hoechst 33342 nuclear staining score, PBLs ([1]; conc 0.1): 0; Hoechst 33342 nuclear staining score, PBLs ([1]; conc 0.3): 0; Hoechst 33342 nuclear staining score, PBLs ([1]; conc 1): 0; Hoechst 33342 nuclear staining score, PBLs ([1]; conc 3): 0; IC50 (HeLa): > 1000 nM; IC50 (Jurkat): > 1000 nM; IC50 (MRC5): > 1000 nM; IC50 (Jily): > 1000 nM |
| COc1cc(-c2cc(-c3cccnc3)cn2S(=O)(=O)c2ccccc2)cc(OC)c1OC [Example 79] | 0 | 0 | 0 | 0 | 0 | 0 | 0 | 0 | 0 | 0 | 0 | 0 | 0 | 0 | 0 | 0 | 0 | 0 | 0 | 0 | Hoechst 33342 nuclear staining score, PBLs ([1]; conc 0.1): 0; Hoechst 33342 nuclear staining score, PBLs ([1]; conc 0.3): 0; Hoechst 33342 nuclear staining score, PBLs ([1]; conc 1): 0; Hoechst 33342 nuclear staining score, PBLs ([1]; conc 3): 0; IC50 (HeLa): > 1000 nM; IC50 (Jurkat): < 1000 nM; IC50 (MRC5): > 1000 nM; IC50 (Jily): > 1000 nM |
| COc1ccc(S(=O)(=O)n2cc(CNc3ccc(N4CCOCC4)cc3)cc2-c2ccc(OC)cc2OC)cc1 [Example 96] | 0 | 0 | 0 | 0 | 0 | 0 | 0 | 0 | 0 | 0 | 0 | 1 (weak activity comprising less than 50% of the cells) | 0 | 0 | 0 | 0 | 0 | 0 | 0 | 0 | Hoechst 33342 nuclear staining score, PBLs ([1]; conc 0.1): 0; Hoechst 33342 nuclear staining score, PBLs ([1]; conc 0.3): 0; Hoechst 33342 nuclear staining score, PBLs ([1]; conc 1): 0; Hoechst 33342 nuclear staining score, PBLs ([1]; conc 3): 0; IC50 (HeLa): > 1000 nM; IC50 (Jurkat): > 1000 nM; IC50 (MRC5): > 1000 nM; IC50 (Jily): > 1000 nM |
| COc1cc(-c2cc(-c3cncc(C(=O)NCCN4CCOCC4)c3)cn2S(=O)(=O)c2ccc(C)cc2)cc(OC)c1OC.Cl [Example 64] | 0 | 0 | 2 (strong activity comprising more than 50% of the cells) | 2 (strong activity comprising more than 50% of the cells) | 0 | 0 | 2 (strong activity comprising more than 50% of the cells) | 2 (strong activity comprising more than 50% of the cells) | 0 | 0 | 2 (strong activity comprising more than 50% of the cells) | 2 (strong activity comprising more than 50% of the cells) | 0 | 0 | 2 (strong activity comprising more than 50% of the cells) | 2 (strong activity comprising more than 50% of the cells) | 0 | 0 | 2 (strong activity comprising more than 50% of the cells) | 2 (strong activity comprising more than 50% of the cells) | Hoechst 33342 nuclear staining score, PBLs ([1]; conc 0.1): 0; Hoechst 33342 nuclear staining score, PBLs ([1]; conc 0.3): 0; Hoechst 33342 nuclear staining score, PBLs ([1]; conc 1): 0; Hoechst 33342 nuclear staining score, PBLs ([1]; conc 3): 0; IC50 (HeLa): < 1000 nM; IC50 (Jurkat): < 1000 nM; IC50 (MRC5): < 1000 nM; IC50 (Jily): < 1000 nM |
